Experimental data published in US10000534B2, “Peptide having osteoblast proliferation activity and periodontal ligament fibroblast proliferation activity, and use of same” (CAREGEN CO., LTD., priority 2014, dated 2018).
Ends that are not written are not given here.

What was measured:
[1] = system: human periodontal ligament fibroblasts; assay: SRB assay of human periodontal ligament fibroblast growth; type: cell-based; conditions: peptide 0.05-10 ug/ml, 72 hours, serum-free; FIGS. 6a and 6b
Method: In order to investigate the effects of the peptides of SEQ ID NO: 1 and SEQ ID NO: 2 on the periodontium, the human periodontal ligament fibroblast promoting effects were analyzed. The periodontal ligament fibroblasts were placed in a 48-well plate to 1×10^3 cells, and then cultured for 24 hours under conditions of 37° C. and 5% CO2. After 24 hours, the exchange with the medium not containing serum was conducted, followed by culture for 6 hours. Thereafter, the resulting product was treated with the peptides at concentrations of 0.05-10 ug/ml and BMP-2 and IGF-1 used as positive controls at a concentration of 0.2 ug/ml, followed by culture for 72 hours. After the completion of the culture, the culture supernatant was removed and the cells were immobilized using ethanol. After the cell immobilization was ended, the cells were washed three times with phosphate buffer saline (PBS). After the wash solution was removed, the cells were treated with colorimetric SRB solution, and sufficiently washed with 1% acetic acid. Then, the cells were observed using a microscope to observe the conditions of living cells. The absorbance for the solution decolorized with 20 mM tris was read at UV light of 560 nm, thereby measuring the survival conditions of cells.

MC3T3-E1 cells [2] = assay: Alkaline phosphatase (ALP) staining of MC3T3-E1 cells (osteoblast differentiation); type: cell-based; conditions: MC3T3-E1, peptide 10 ug/ml and 50 ug/ml, 13 days; FIGS. 2a and 2b
Method: In order to analyze the BMP2-like action of the sequence peptides synthesized in synthesis example 1, the osteoblast differentiation promoting effect was investigated through alkaline phosphatase (ALP) staining of MC3T3-E1 cells, which are a pre-osteoblast cell line. The MC3T3-E1 cells were placed in a 24-well plate to 3×10^4 cells, and then cultured for 24 hours under conditions of 37° C. and 5% CO2. After 24 hours, the alpha-MEM medium containing 10% FBS and 50 ug/ml ascorbic acid+100 mM b-glycerophosphate was treated with the synthetic peptides at concentrations of 10 ug/ml and 50 ug/ml, and then the culture was conducted for 13 days while the medium was exchanged every three days. The culture-completed plate well was washed two times with PBS, and then the cells were immobilized with an immobilization buffer, in which acetone, 37% formaldehyde, and citric acid solution were mixed, for 30 seconds. The following staining was carried out using the leukocyte alkaline phosphatase staining kit (SIGMA).
The cells were treated for 2 minutes with an FBB-alkaline solution and a sodium nitrite solution mixed at 1:1, and then treated with a buffer composed of distilled water and naphthol AS-BI alkaline solution, followed by color development in an incubator at 37° C. for 1 hour.

[3] = system: human periodontal ligament fibroblasts; assay: Western blotting of p-PI3K and p-Akt in periodontal ligament fibroblasts; type: cell-based; conditions: peptide 10 ug/ml, 5-15 minutes, FIGS. 7a and 7b
Method: In order to investigate the human periodontal ligament fibroblast growth promoting effects by the peptides of SEQ ID NO: 1 and SEQ ID NO: 2, the phosphorylation degrees of related signaling molecules were analyzed using western blotting. The periodontal ligament fibroblasts were placed in a 6-well plate to 5×10^5 cells, and then cultured for 24 hours under conditions of 37° C. and 5% CO2. Thereafter, the resulting product was treated with the peptides at a concentration of 10 ug/ml and bFGF used as a positive control at a concentration of 0.2 ug/ml. Then, the cells were collected by culture times of 5-15 minutes, and the total proteins were isolated, and then western blotting was conducted with respect to p-PI3K and p-Akt.

MC3T3-E1 cells [4] = assay: Western blotting of pSmad1/5/8 in MC3T3-E1 cells; type: cell-based; conditions: MC3T3-E1, peptide 10 ug/ml, 15 and 30 minutes, FIGS. 4a and 4b
Method: In order to investigate whether pSmad1/5/8, which is a signal involved in the promotion of osteogenic differentiation, was activated by the present peptides, MC3T3-E1 cells were placed in a 6-well plate at 2×10^5 cells, and then cultured for 24 hours under the conditions of 37° C. and 5% CO2. After 24 hours, the medium was exchanged with a medium without serum, followed by culture for 24 hours. Then, the resulting product was treated with the respective peptides at 10 ug/ml, and BMP2 used at a positive control at 50 ng/ml. After 15 minutes and 30 minutes, the washing was conducted with PBS, and then a lysis buffer was added to obtain proteins through lysis, followed by western blotting.

MC3T3-E1 cells [5] = assay: RT-PCR of osteogenic differentiation-related genes (BSP, COL1A1) in MC3T3-E1 cells; type: cell-based; conditions: MC3T3-E1, peptide 10 ug/ml and 50 ug/ml, 2 days; FIGS. 3a and 3b
Method: In order to investigate the mRNA expression levels of osteogenic differentiation-related genes, bone sialoprotein (BSP) and collagen type I alpha 1 (COL1A1) by the sequence peptides synthesized in synthesis example 1, MC3T3-E1 cells were placed in a 6-well plate to 2×10^5 cells, and then cultured for 24 hours under conditions of 37° C. and 5% CO2. After 24 hours, the medium containing FBS 10% was treated with the respective peptides at 10 ug/ml and 50 ug/ml, and BMP2 used at a positive control at 100 ng/ml. After 2 days, the washing was conducted with PBS, and then RNA was isolated using Easy blue (Intron). cDNA was synthesized using 1 ug of RNA and RT premixture (Intron), and PCR was conducted using PCR premixture (Bioneer), and then the resulting product was loaded on agarose gel to investigate the mRNA expression degree of each gene.

C2C12 cells = assay: MTT assay of cell proliferation in C2C12 cells; type: cell-based; conditions: peptide 10 μg/ml, 72 hours, serum-free, FIGS. 1a and 1b
Method: In order to analyze the BMP2-like action of the sequence peptides synthesized in synthesis example 1, MTT assay was conducted using C2C12 cells, which are a myoblast cell line, to investigate the proliferation promoting effect.
The C2C12 cells were cultured in Dulbecco's modified Eagle's medium (DMEM, Gibco) supplemented with 10% fetal bovine serum (FBS, Sigma) using a 500 ml-flask for tissue culture. The cultured cell lines were carefully detached from the bottom of the culture container using a 1% trypsin solution, followed by centrifugation, thereby obtaining only cell precipitates. The cell precipitates were re-suspended in DMEM culture medium supplemented without FBS, and then added to a 96-well plate for tissue culture at 1×10^3 cells per each well, followed by culture under conditions of 37° C. and 5% CO2 for 24 hours. After 24 hours, the medium was changed with the same culture liquid completely excluding serum, and then the blank sample and each of the synthetic peptide were dissolved sterile in distilled water, and the mixture was cultured at a concentration of 10 μg/ml for 72 hours under the same conditions. The MTT sample was added to the culture-completed well, and after 4 hour, the formed formazan was dissolved in DMSO, and then the absorbance was measured at 560 nm to determine cell proliferation.

[6] = system: periodontal ligament fibroblasts; assay: RT-PCR of COL1A1 and DSPP mRNA in periodontal ligament fibroblasts; type: cell-based, human; conditions: peptide 1 and 10 ug/ml, 72 hours, FIGS. 8a and 8b
Method: In order to investigate the periodontal ligament fibroblast activity promoting effects by the peptides of SEQ ID NO: 1 and SEQ ID NO: 2, the mRNA expression of related genes was analyzed using RT-PCR. The periodontal ligament fibroblasts were placed in a 24-well plate to 1.5×10^4 cells, and then cultured for 24 hours under conditions of 37° C. and 5% CO2. After 24 hours, the exchange with the medium not containing serum was conducted, followed by culture for 24 hours. Thereafter, the resulting product was treated with the peptides at concentrations of 1 and 10 ug/ml and BMP-2 and IGF-1 used as positive controls at a concentration of 0.2 ug/ml, followed by culture for 72 hours. After the completion of the culture, the washing was conducted with PBS, and then RNA was isolated using Easy blue (Intron). cDNA was synthesized using 1 ug of RNA and RT premixture (Intron), and PCR was conducted using PCR premixture (Bioneer), and then the resulting product was loaded on agarose gel to investigate the mRNA level of each marker.

Balb/c mouse = assay: Collagen sponge transplant in Balb/c mouse, H&E staining of osteocytes permeation and differentiation; type: in vivo; conditions: collagen sponge with 100 ug peptide transplanted into the back, 2 weeks, FIG. 5
Method: A collagen sponge with a size of 0.5 mm×0.5 mm was wetted with 100 ug of the peptide of SEQ ID NO: 1, transplanted into the back of the Balb/c mouse, and then left for 2 weeks. Thereafter, the collagen sponge was extracted, and then made into a paraffin block, and then the degree of osteocytes permeation and differentiation in the collagen sponge were measured through H&E staining (FIG. 5).

FDMGAYKSSK [SEQ ID NO: 2]
periodontal ligament fibroblast cell growth (SRB, absorbance 560 nm) [1]: cell growth increase in a dose-dependent manner | ALP expression (ALP staining) (MC3T3-E1 cells [2]): increase in the ALP expression | phosphorylation level of Akt [3]: increases in the phosphorylation levels | phosphorylation level of PI3K [3]: increases in the phosphorylation levels | phosphorylation of Smad1/5/8 (MC3T3-E1 cells [4]): promotion of the phosphorylation of Smad1/5/8 | mRNA expression levels of osteogenic differentiation genes (BSP, COL1A1) (MC3T3-E1 cells [5]): increases in the mRNA expression levels | growth of osteoblasts (cell proliferation, MTT, absorbance at 560 nm) (C2C12 cells): significantly promoted the growth of osteoblasts | mRNA expression level of alpha-1 type I collagen (COL1A1) [6]: increases in the mRNA expression levels | mRNA expression level of dentin sialophosphoprotein (DSPP) [6]: increases in the mRNA expression levels

RSLNLRDSQKS [SEQ ID NO: 1]
periodontal ligament fibroblast cell growth (SRB, absorbance 560 nm) [1]: cell growth increase in a dose-dependent manner | ALP expression (ALP staining) (MC3T3-E1 cells [2]): increase in the ALP expression | bone formation promoting effect (osteocytes permeation, proliferation and differentiation in collagen sponge, H&E) (Balb/c mouse): bone formation promoting effect | phosphorylation level of Akt [3]: increases in the phosphorylation levels | phosphorylation level of PI3K [3]: increases in the phosphorylation levels | phosphorylation of Smad1/5/8 (MC3T3-E1 cells [4]): promotion of the phosphorylation of Smad1/5/8 | mRNA expression levels of osteogenic differentiation genes (BSP, COL1A1) (MC3T3-E1 cells [5]): increases in the mRNA expression levels | growth of osteoblasts (cell proliferation, MTT, absorbance at 560 nm) (C2C12 cells): significantly promoted the growth of osteoblasts | mRNA expression level of alpha-1 type I collagen (COL1A1) [6]: increases in the mRNA expression levels | mRNA expression level of dentin sialophosphoprotein (DSPP) [6]: increases in the mRNA expression levels
